Values quoted from earlier work in US6627219B2, “Oily capsule preparation and the method for preparing same” (Pharmaceutical Industry Technology and Development Center, priority 2000, dated 2003).
Where two headings read alike, the source gives them in different places.

What was measured:
[1] = not given; remark: listed apart in the source

COc1ccc2[nH]c([S+]([O-])Cc3ncc(C)c(OC)c3C)nc2c1 (stereo not drawn) [Omeprazole, 5-methoxy-2(((4-methoxy-3,5-dimethyl-2-pyridinyl)methyl)sulfinyl)1H-benzimidazole]
stability (basic medium of a pH higher than 7): stable | stability (neutral or acid medium): easily degraded or denatured | solubility in water [1]: hardly soluble in water
